Results on 10 compounds are retold here after patent US20260297131A1, “COMPOSITIONS AND METHODS FOR PEPTIDE-BASED MODULATORS OF HUMAN PAPILLOMAVIRUS ONCOPROTEIN E6” (priority 2023, published 2026).

The target of assay [1] is T1, MBP-16E6 (Human papillomavirus 16, UniProt P03126, C104S/C118S/C147S/C87S). Kind of assay: biochemical.
The target in assay [2] is T1, MBP-16E6. As to conditions: for Ratio to wild-type: N-terminal modified peptides, KD of WT divided by KD.
[3] abbreviates: KD in nM, N-terminal modified peptides, competition mode, N = 2 or 3, SEM of curve fitting.
Setting [4] is: competition KD, BLI competition, values in text.

Square brackets hold non-standard residues; d marks the D form. Peptide text beside a SMILES is read from it. 2Nal = N[C@@H](Cc1ccc2ccccc2c1)C(=O)O; Gly(cPent) = N[C@H](C(=O)O)C1CCCC1; Ala(cPr) = N[C@@H](CC1CC1)C(=O)O; hPhe = N[C@@H](CCc1ccccc1)C(=O)O; Gly(cBu) = N[C@H](C(=O)O)C1CCC1; Aad = N[C@@H](CCCC(=O)O)C(=O)O; Aib = CC(C)(N)C(=O)O; Dha = C=C(N)C(=O)O Bounds are passed on as bounds.

T1 sequence (P03126 whole entry C104S/C118S/C147S/C87S, looked up): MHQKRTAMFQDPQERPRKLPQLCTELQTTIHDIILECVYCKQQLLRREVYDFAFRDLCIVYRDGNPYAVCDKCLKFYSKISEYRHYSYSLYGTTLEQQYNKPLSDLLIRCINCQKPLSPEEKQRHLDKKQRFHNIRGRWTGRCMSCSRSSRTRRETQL

`CC[C@H](C)[C@H](NC(=O)c1c(O)cccc1O)C(=O)N1CCC[C@H]1C(=O)N[C@@H](CCC(=O)O)C(=O)N[C@@H](CO)C(=O)N[C@@H](CO)C(=O)N[C@@H](CCC(=O)O)C(=O)N[C@@H](CC(C)C)C(=O)N[C@H](C(=O)N[C@@H](CC(C)C)C(=O)N[C@@H](CCC(N)=O)C(=O)N[C@@H](CCC(=O)O)C(=O)N[C@@H](CC(C)C)C(=O)N[C@@H](CC(C)C)C(=O)NCC(=O)N[C@@H](CCC(=O)O)C(=O)N[C@@H](CCC(=O)O)C(=O)N[C@@H](CCCNC(=N)N)C(=O)N[C@@H](CCCNC(=N)N)C(N)=O)[C@@H](C)O` [Peptide N15]: in assay [1] (setting [3]), the Kd (usually the constant that tells how readily two partners part at equilibrium) was determined as 767 ± 295 nM. In assay [2], the Ratio to wild-type was 3.1.
The matching figures for `CC[C@H](C)[C@H](NC(=O)c1c(F)c(F)c(F)c(F)c1F)C(=O)N1CCC[C@H]1C(=O)N[C@@H](CCC(=O)O)C(=O)N[C@@H](CO)C(=O)N[C@@H](CO)C(=O)N[C@@H](CCC(=O)O)C(=O)N[C@@H](CC(C)C)C(=O)N[C@H](C(=O)N[C@@H](CC(C)C)C(=O)N[C@@H](CCC(N)=O)C(=O)N[C@@H](CCC(=O)O)C(=O)N[C@@H](CC(C)C)C(=O)N[C@@H](CC(C)C)C(=O)NCC(=O)N[C@@H](CCC(=O)O)C(=O)N[C@@H](CCC(=O)O)C(=O)N[C@@H](CCCNC(=N)N)C(=O)N[C@@H](CCCNC(=N)N)C(N)=O)[C@@H](C)O` [Peptide N16]: 228 ± 74 nM and 10.7.
Taken in the same sequence, the figures for `CC[C@H](C)[C@H](NC(=O)c1ccc2cc(O)ccc2c1)C(=O)N1CCC[C@H]1C(=O)N[C@@H](CCC(=O)O)C(=O)N[C@@H](CO)C(=O)N[C@@H](CO)C(=O)N[C@@H](CCC(=O)O)C(=O)N[C@@H](CC(C)C)C(=O)N[C@H](C(=O)N[C@@H](CC(C)C)C(=O)N[C@@H](CCC(N)=O)C(=O)N[C@@H](CCC(=O)O)C(=O)N[C@@H](CC(C)C)C(=O)N[C@@H](CC(C)C)C(=O)NCC(=O)N[C@@H](CCC(=O)O)C(=O)N[C@@H](CCC(=O)O)C(=O)N[C@@H](CCCNC(=N)N)C(=O)N[C@@H](CCCNC(=N)N)C(N)=O)[C@@H](C)O` [Peptide N17] were 159 ± 47 nM and 15.3.
As for `CC[C@H](C)[C@H](NC(=O)CCCc1ccc2ccc3cccc4ccc1c2c34)C(=O)N1CCC[C@H]1C(=O)N[C@@H](CCC(=O)O)C(=O)N[C@@H](CO)C(=O)N[C@@H](CO)C(=O)N[C@@H](CCC(=O)O)C(=O)N[C@@H](CC(C)C)C(=O)N[C@H](C(=O)N[C@@H](CC(C)C)C(=O)N[C@@H](CCC(N)=O)C(=O)N[C@@H](CCC(=O)O)C(=O)N[C@@H](CC(C)C)C(=O)N[C@@H](CC(C)C)C(=O)NCC(=O)N[C@@H](CCC(=O)O)C(=O)N[C@@H](CCC(=O)O)C(=O)N[C@@H](CCCNC(=N)N)C(=O)N[C@@H](CCCNC(=N)N)C(N)=O)[C@@H](C)O` [Peptide N18], in assay [1] (setting [3]), the Kd was 106 ± 27 nM. Moreover, the Ratio to wild-type in assay [2] turned out to be 23.
For `CC[C@H](C)[C@H](NC(=O)c1ccc2c3c(cccc13)CC2)C(=O)N1CCC[C@H]1C(=O)N[C@@H](CCC(=O)O)C(=O)N[C@@H](CO)C(=O)N[C@@H](CO)C(=O)N[C@@H](CCC(=O)O)C(=O)N[C@@H](CC(C)C)C(=O)N[C@H](C(=O)N[C@@H](CC(C)C)C(=O)N[C@@H](CCC(N)=O)C(=O)N[C@@H](CCC(=O)O)C(=O)N[C@@H](CC(C)C)C(=O)N[C@@H](CC(C)C)C(=O)NCC(=O)N[C@@H](CCC(=O)O)C(=O)N[C@@H](CCC(=O)O)C(=O)N[C@@H](CCCNC(=N)N)C(=O)N[C@@H](CCCNC(=N)N)C(N)=O)[C@@H](C)O` [Peptide N19], the Kd in assay [1] (setting [3]) was 55 ± 12 nM; in assay [1] (setting [4]), < 70 nM. Besides, the Ratio to wild-type in assay [2] was found to be 44.4.
For `CC[C@H](C)[C@H](NC(=O)Cc1cc(=O)oc2cc(OC)ccc12)C(=O)N1CCC[C@H]1C(=O)N[C@@H](CCC(=O)O)C(=O)N[C@@H](CO)C(=O)N[C@@H](CO)C(=O)N[C@@H](CCC(=O)O)C(=O)N[C@@H](CC(C)C)C(=O)N[C@H](C(=O)N[C@@H](CC(C)C)C(=O)N[C@@H](CCC(N)=O)C(=O)N[C@@H](CCC(=O)O)C(=O)N[C@@H](CC(C)C)C(=O)N[C@@H](CC(C)C)C(=O)NCC(=O)N[C@@H](CCC(=O)O)C(=O)N[C@@H](CCC(=O)O)C(=O)N[C@@H](CCCNC(=N)N)C(=O)N[C@@H](CCCNC(=N)N)C(N)=O)[C@@H](C)O` [Peptide N20], the Kd in assay [1] (setting [3]) came to 213 ± 47 nM. In addition, the Ratio to wild-type in assay [2] stood at 11.4.
Regarding `CC[C@H](C)[C@H](NC(=O)[C@@H](N)Cc1ccc(-c2ccccc2)cc1)C(=O)N1CCC[C@H]1C(=O)N[C@@H](CCC(=O)O)C(=O)N[C@@H](CO)C(=O)N[C@@H](CO)C(=O)N[C@@H](CCC(=O)O)C(=O)N[C@@H](CC(C)C)C(=O)N[C@H](C(=O)N[C@@H](CC(C)C)C(=O)N[C@@H](CCC(N)=O)C(=O)N[C@@H](CCC(=O)O)C(=O)N[C@@H](CC(C)C)C(=O)N[C@@H](CC(C)C)C(=O)NCC(=O)N[C@@H](CCC(=O)O)C(=O)N[C@@H](CCC(=O)O)C(=O)N[C@@H](CCCNC(=N)N)C(=O)N[C@@H](CCCNC(=N)N)C(N)=O)[C@@H](C)O` [Peptide N21], the Kd in assay [1] (setting [3]) was 1410 ± 757 nM; in assay [1] (setting [4]), 1410 nM. The Ratio to wild-type in assay [2] was 1.7. Also, in assay [2] (relative to fluorene-modified N1 / parent modification), the “decrease in binding by change of terminal group” value is reported as ~ 27 fold.
In assay [1] (setting [3]), `CC[C@H](C)[C@H](NC(=O)[C@@H](N)CC1CCCCC1)C(=O)N1CCC[C@H]1C(=O)N[C@@H](CCC(=O)O)C(=O)N[C@@H](CO)C(=O)N[C@@H](CO)C(=O)N[C@@H](CCC(=O)O)C(=O)N[C@@H](CC(C)C)C(=O)N[C@H](C(=O)N[C@@H](CC(C)C)C(=O)N[C@@H](CCC(N)=O)C(=O)N[C@@H](CCC(=O)O)C(=O)N[C@@H](CC(C)C)C(=O)N[C@@H](CC(C)C)C(=O)NCC(=O)N[C@@H](CCC(=O)O)C(=O)N[C@@H](CCC(=O)O)C(=O)N[C@@H](CCCNC(=N)N)C(=O)N[C@@H](CCCNC(=N)N)C(N)=O)[C@@H](C)O` [Peptide N22] registered a Kd of 1660 ± 705 nM. Also, the Ratio to wild-type in assay [2] amounted to 1.4.
In the case of `C=C(NC(=O)[C@H](CC1CC1)NC(=O)[C@H](CCc1ccccc1)NC(=O)[C@H](CCC(=O)O)NC(=O)C(C)(C)NC(=O)[C@H](CC1CC1)NC(=O)[C@@H](NC(=O)[C@H](Cc1ccc2ccccc2c1)NC(=O)[C@@H](N)CCCC(=O)O)C1CCC1)C(=O)N[C@@H](CCC(=O)O)C(=O)N[C@@H](CCC(=O)O)C(=O)N[C@@H](CCCNC(=N)N)C(N)=O` [peptide 14] (H-[Aad][2Nal][Gly(cBu)][Ala(cPr)][Aib]E[hPhe][Ala(cPr)][Dha]EER-NH2), the “lower binding affinity compared to peptide 18” value in assay [2] (substitution Leu8Hof) came to 2 fold.
Consider `C=C(NC(=O)[C@H](CC(C)C)NC(=O)[C@H](CC(C)C)NC(=O)[C@H](CCCC(=O)O)NC(=O)C(C)(C)NC(=O)[C@H](CC1CC1)NC(=O)[C@@H](NC(=O)[C@H](Cc1ccc2ccccc2c1)NC(=O)[C@@H](N)CCCC(=O)O)C1CCCC1)C(=O)N[C@@H](CCC(=O)O)C(=O)N[C@@H](CCC(=O)O)C(=O)N[C@@H](CCCNC(=N)N)C(N)=O` [peptide 23] (H-[Aad][2Nal][Gly(cPent)][Ala(cPr)][Aib][Aad]LL[Dha]EER-NH2), for which the “improved affinity compared to parent reactide ELT-DHA9G” value in assay [2] came to 50 fold.
